Where a name gives a salt, the structure may show the parent alone. Read-outs that look alike come from different tables or passages of the source.

Format in all cases: in vivo
In data set [1] the test system is apomorphine-induced emesis. The experiment in a line: apomorphine-induced emesis in dogs (anti-emetic effect). Particulars: for ED50: Canis lupus familiaris. The procedure: The anti-emetic properties of the compounds of Formulae I and II were established using a modification of the methods of Chen and Ensor, J. Pharmac. Exp. Ther. 98: 245-250 (1950) and of Leonard et al, J. Pharmac. Exp. Ther. 154, 339-345 (1966). Drug activity was assessed by its ability to reduce the frequency of apomorphine-induced emesis in dogs. The dogs were prescreened for fairly constant emetic responses to the subcutaneous administration of 0.1 mg./kg. of apomorphine hydrochloride, and those which vomited five or more times in the 40-minute period after apomorphine administration were selected for drug studies.
Groups of three dogs were used in preliminary tests and for the determinations of time of peak drug effect. Dose response curves were usually obtained using four drug-treated groups; each group contained at least three dogs. The dogs were fed approximately 17 hours prior to a test. Drugs were administered and at suitable intervals the dogs received 0.1 mg/kg of apormorphine hydrochloride subcutaneously. Frequency of emesis was determined during the next 40 minutes and emesis was counted as the actual expulsion of stomach contents.
In oral studies, drugs were administered in gelatin capsules (controls received an empty capsule). In the subcutaneous studies, drugs were administered in distilled water and/or polyethylene glycol-300.
Dogs were re-used at intervals of not less than one week. The ED50 is the dose which reduces the frequency of emesis of drug treated dogs to a value 50% below that of controls. Mean frequency of emesis for each drug treated group was compared with a mean control value derived by pooling the prior control emetic frequencies for all dogs used on that test day. The difference is expressed as a percentage decrease relative to controls. The per cent decrease in mean frequency of emesis for each drug-treated group (ordinate) was plotted against log dose (abscissa) on semi-log graph sheets. The ED50 was calculated by the method of Goldstein (Biostatistics, An Introductory Test; Pages 156-161; the MacMillan Co., New York, 1964).

Data set [2] deals with catalepsy in rats. The data set is described as follows: Catalepsy in rats. Conditions: Table 7, rats, IP. The procedure: (§1) Drugs were blind tested with positive and negative controls. The procedure used is a modification of the method previously described by Tedeschi et al., Archs. Int. Pharmacodyn. Ther. 122, 129-143 (1959). The modified procedure is as follows.
(§2) Groups of six rats are dosed (IP) with drugs in saline solution and tested hourly over a 6 hour period. A phenothiazine or non-phenothiazine reference standard is tested concomitantly as a positive control; negative controls receive only the saline vehicle. After administration the rats are positioned hourly with each foot on a No. 7 rubber stopper. A rat is considered cataleptic if it remains immobile on the stoppers for five seconds or longer at two or more consecutive hourly observation intervals. […] Exp. Ther. 96, 99-113 (1949).

Data set [3] can be described thus: Catalepsy in rats. Particulars: rat, in vivo, ip. The protocol:
as §1, §2

The mark [4] stands for this setting: sc, Table 4, dogs, subcutaneous, doses expressed as free base, read-out: ED50, Anti-Emetic Effect of Subcutaneous Administration.
Setting [5] is: sc, read-out: ED50, Anti-Emetic Effect of Subcutaneous Administration.
[6] abbreviates: Table 5, dogs, oral, doses expressed as free base, read-out: ED50, Anti-Emetic Effect of Oral Administration.
The mark [7] stands for this setting: sc, Table 7, dogs, subcutaneous, as free base, read-out: Anti-Apomorphine Effect ED50.
Where [8] appears, read: sc, Table 6, dogs, subcutaneous, as free base, read-out: Anti-Apomorphine Effect ED50.

With `CNc1ccc(C(=O)N(C)C2CCN(C3CCCCC3)C2)cc1.Cl.Cl` (stereo not drawn) [Example 9, 4-Methylamino-N-(1-cyclohexyl-3-pyrrolidinyl)-N-methylbenzamide Dihydrochloride], the ED50 in data set [1] (setting [4]) was 0.5 mg/kg.

For the molecule `O=C(NC1CCN(C2CCCCC2)C1)c1cccc(C(F)(F)F)c1` (stereo not drawn) [Example 16], in data set [1] (setting [4]), the ED50 is 0.18 mg/kg.

Take `O=C(NC1CCN(C2CCCCC2)C1)c1ccc(F)cc1` (stereo not drawn) [Example 10]: the ED50 in data set [1] (setting [5]) stood at 0.15 mg/kg; in data set [1] (setting [6]), 1.5 mg/kg.

`O=C(NC1CCN(C2CCCCC2)C1)c1ccc(I)cc1` (stereo not drawn) [Example 20]: in data set [1] (setting [4]), the ED50 is 1.25 mg/kg.

Regarding `CCOc1ccc(C(=O)NC2CCN(C3CCCCC3)C2)cc1OCC` (stereo not drawn) [Example 15], the ED50 in data set [1] (setting [4]) turned out to be 0.66 mg/kg.

For `CN(C(=O)c1ccc([N+](=O)[O-])cc1)C1CCN(C2CCCCC2)C1` (stereo not drawn) [Example 27], in data set [1] (setting [7]), the ED50 stood at 10 mg/kg. Further, in the data set on catalepsy in rats [2] (as free base), the “Catalepsy (ED50 or other): no catatonia up to dose” value is recorded as “no catatonia to 100” and the lethal dose is listed as 100 mg/kg.

For the molecule `CN(C)c1ccc(C(=O)N(C)C2CCN(C3CCCCC3)C2)cc1` (stereo not drawn) [Example 6, N-(1-Cyclohexyl-3-pyrrolidinyl)-p-dimethylamino-N-methylbenzamide Fumarate], the ED50 in data set [1] (setting [4]) amounted to 1.1 mg/kg.

With `COc1cc(N)c(Cl)cc1C(=O)NC1CCN(C2CCCCC2)C1` (stereo not drawn) [Example 37], the ED50 in data set [1] (setting [4]) and in data set [1] (setting [8]) was 0.003 mg/kg throughout.

With `O=C(NC1CCN(C2CCCCC2)C1)c1ccc(Br)cc1` (stereo not drawn) [Example 11], the ED50 in data set [1] (setting [4]) is 0.7 mg/kg.

On to `COc1cc(C(=O)NC2CCN(C3CCCCC3)C2)cc(OC)c1OC` (stereo not drawn) [Example 18], for which, in data set [1] (setting [4]), the ED50 stood at 0.4 mg/kg.

For `O=C(NC1CCN(C2CCCCC2)C1)c1cc([N+](=O)[O-])cc([N+](=O)[O-])c1` (stereo not drawn) [Example 12], the ED50 in data set [1] (setting [5]) was found to be 0.15 mg/kg.

On to `CC(=O)Nc1ccc(C(=O)NC2CCN(C3CCCCC3)C2)cc1` (stereo not drawn) [Example 7, N-(1-Cyclohexyl-3-pyrrolidinyl)-4-acetamidobenzamide], for which, in data set [1] (setting [5]), the ED50 is 2.4 mg/kg.

As to `CN(C)c1ccc(C(=O)NC2CCN(C3CCCCC3)C2)cc1` (stereo not drawn) [Example 35], the ED50 in data set [1] (setting [4]) was 0.89 mg/kg.

For `CSc1ccc(C(=O)NC2CCN(C3CCCCC3)C2)cc1` (stereo not drawn) [Example 33], in data set [1] (setting [4]), the ED50 amounted to 0.88 mg/kg.

Regarding `Nc1ccc(C(=O)NC2CCN(C3CCCCC3)C2)cc1` (stereo not drawn) [Example 23], the ED50 came out at 1.67 mg/kg in data set [1] (setting [4]), 1.7 mg/kg in data set [1] (setting [7]) and 2.5 mg/kg in data set [1] (setting [6]). The “Catalepsy, percentage of rats cataleptic” value with catalepsy in rats [2] (at 94.2 mg/kg as free base) is recorded as 33%.

In the case of `CN1CCC(NC(=O)c2ccccc2)C1.O=C(O)/C=C/C(=O)O` (stereo not drawn) [Example 8(A), N-(1-Methyl-3-pyrrolidinyl)benzamide Fumarate, reference compound], in data set [1] (setting [8]), the ED50 was 3.2 mg/kg.

On to `O=C(NC1CCN(C2CCCCC2)C1)c1ccc(Cl)cc1` (stereo not drawn) [Example 17], for which, in data set [1] (setting [4]), the ED50 is 0.28 mg/kg.

For `O=C(NC1CCN(C2CCCCC2)C1)c1ccccc1F` (stereo not drawn) [Example 2, N-(1-Cyclohexyl-3-pyrrolidinyl)-2-fluorobenzamide hydrochloride], the ED50 in data set [1] (setting [4]) was 1.6 mg/kg.

`O=C(NC1CCN(C2CCCCC2)C1)c1ccc([N+](=O)[O-])cc1` (stereo not drawn) [Example 25]: the ED50 is 2.03 mg/kg in data set [1] (setting [4]) and 1.8 mg/kg in data set [1] (setting [7]). The TD50 at 6 h in “Catalepsy in rats [3]” turned out to be 28 mg/kg.

As for `O=C(NC1CCN(C2CCCCC2)C1)c1ccccc1` (stereo not drawn) [Example 24], the ED50 in data set [1] (setting [4]) and in data set [1] (setting [8]) was 0.28 mg/kg in each case.

As for `Cc1ccc(C(=O)NC2CCN(C3CCCCC3)C2)cc1` (stereo not drawn) [Example 36], the ED50 in data set [1] (setting [4]) stood at 0.31 mg/kg.

`O=C(NC1CCN(C2CCCCC2)C1)c1cccc(Br)c1` (stereo not drawn) [Example 1, N-(1-Cyclohexyl-3-pyrrolidinyl)-3-bromobenzamide]: the ED50 in data set [1] (setting [4]) worked out at 0.4 mg/kg.

Regarding `COc1ccc(C(=O)NC2CCN(C3CCCCC3)C2)c(OC)c1` (stereo not drawn) [Example 34], the ED50 in data set [1] (setting [4]) is 0.026 mg/kg.

Take `O=C(NC1CCN(C2CCCCC2)C1)c1ccc(Cl)c(Cl)c1` (stereo not drawn) [Example 13]: the ED50 in data set [1] (setting [4]) amounted to 0.28 mg/kg.

`O=C(NC1CCN(C2CCCCC2)C1)c1ccc(Cl)cc1Cl` (stereo not drawn) [Example 32]: the ED50 in data set [1] (setting [5]) stood at 2.4 mg/kg.

`COc1cc(N)c(Cl)cc1C(=O)NC1CCN(C)C1` (stereo not drawn) [Example 8(B), 4-Amino-5-chloro-2-methoxy-N-(1-methyl-3-pyrrolidinyl)benzamide, reference compound]: the ED50 in data set [1] (setting [8]) is 0.053 mg/kg.

`CN(C(=O)c1ccc(N)cc1)C1CCN(C2CCCCC2)C1` (stereo not drawn) [Example 4, 4-Amino-N-(1-cyclohexyl-3-pyrrolidinyl)-N-methylbenzamide Cyclohexanesulfamate]: the ED50 in data set [1] (setting [7]) amounted to 0.27 mg/kg; in data set [1] (sc, dogs, subcutaneous, cyclohexanesulfamate salt dose, read-out: ED50 for subcutaneous administration), 0.43 mg/kg; in data set [1] (sc, dogs, subcutaneous, expressed as free base (Example 1P), read-out: ED50 for subcutaneous administration, expressed as free base), 0.27 mg/kg. For the same molecule, the blockage of apomorphine induced emesis in data set [1] (dogs, oral capsules 2.5 mg./kg., apomorphine after two hours) is 95%. The molecule also came in with a blockage of emesis in data set [1] (dogs, subcutaneous 5.0 mg./kg. (3.12 mg./kg. as free base), apomorphine one hour later, 40-minute period) of 100%. In addition, the “Catalepsy (ED50 or other): no catatonia up to dose” value in the data set on catalepsy in rats [2] (as free base) is recorded as “no catatonia to 125”.

These data come from US3963745A, “Method for controlling emesis with N-(1-substituted-3-pyrrolidinyl)benzamides and thiobenzamides” (A. H. Robins Company, Incorporated, priority 1974, dated 1976).
